Columns and labels:
TRα = target: T1, TRα (Homo sapiens, UniProt P10827); experiment: LanthaScreen TR-FRET Thyroid Receptor alfa Coactivator Assay (in vitro binding activity); details: TR alfa-LBD
T1 construct: 5 μL of 4×TR beta/alfa-LBD; purchased Invitrogen PV4687
Method: (§1) 2. Detection of the Binding Activity of the Compound of the Present Invention to TRα or TRβ In Vitro
(§2) Test Materials • LanthaScreen TR-FRET Thyroid Receptor beta Coactivator Assay kit was purchased from Invitrogen, Cat. No. PV4686; • LanthaScreen TR-FRET Thyroid Receptor alfa Coactivator Assay kit was purchased from Invitrogen, Cat. No. PV4687.
(§3) The method was experimented with LanthaScreen TR-FRET Thyroid Receptor beta/alfa Coactivator Assay kit. The test compound was dissolved in DMSO and diluted 3 times to a total of 10 concentrations, and then diluted with TR-FRET Coregulator Buffer C in the kit to form a solution containing 2% DMSO, 10 μL of the solution containing 2% DMSO was taken into a 384-well plate, then 5 μL of 4×TR beta/alfa-LBD, 5 μL of a mixture containing 0.4 μM fluorescein-SRC2-2 and 8 nM Tb anti-GST antibody were added into each well, mixed thoroughly, and incubated at room temperature for 1 h in the dark. After 1 h, BMG LABTECH's PHERAstar FSX microplate reader was used to read the fluorescence value (RFU) at […]. The TR-FRET ratio was calculated by dividing the emission signal at 520 nm by the emission signal at 495 nm. Graph Pad Prism 5 software was used to draw the curve and calculate the EC50 value. The in vitro binding activity test results of some of the compounds of the examples of the present invention are shown in Table 1 below.

TRβ = target: T2, TRβ (Homo sapiens, UniProt P10828); experiment: LanthaScreen TR-FRET Thyroid Receptor beta Coactivator Assay (in vitro binding activity); details: TR beta-LBD
T2 construct: 5 μL of 4×TR beta/alfa-LBD; purchased Invitrogen PV4686
T2 sequence (P10828 217-461 limits assumed): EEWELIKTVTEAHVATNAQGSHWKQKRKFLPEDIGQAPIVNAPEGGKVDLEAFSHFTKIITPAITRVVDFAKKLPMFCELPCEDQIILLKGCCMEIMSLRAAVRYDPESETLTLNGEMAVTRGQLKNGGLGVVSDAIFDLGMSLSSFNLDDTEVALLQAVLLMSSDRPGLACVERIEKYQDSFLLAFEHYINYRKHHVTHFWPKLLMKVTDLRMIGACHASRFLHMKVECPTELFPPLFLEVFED
Method: as §1, §2, §3

T1 sequence (P10827 163-410 isoform P10827-2 limits assumed, other chains not shown): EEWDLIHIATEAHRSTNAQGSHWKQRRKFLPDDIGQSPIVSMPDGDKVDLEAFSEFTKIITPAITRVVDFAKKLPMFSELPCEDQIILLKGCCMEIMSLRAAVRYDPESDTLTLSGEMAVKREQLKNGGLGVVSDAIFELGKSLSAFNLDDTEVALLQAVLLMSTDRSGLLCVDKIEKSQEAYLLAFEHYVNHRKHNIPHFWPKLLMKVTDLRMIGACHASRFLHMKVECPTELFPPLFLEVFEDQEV

Row | SMILES | EC50 (TRα) [µM] | EC50 (TRβ) [µM]
1 | O=C1c2ccc(Oc3c(Cl)cc(-n4ncc(=O)[nH]c4=O)cc3Cl)cc2CCN1c1nccs1 [Example 52, 2-(3,5-dichloro-4-((1-oxo-2-(thiazol-2-yl)-1,2,3,4-tetrahydroisoquinolin-6-yl)oxy)phenyl)-1,2,4-triazine-3,5(2H,4H)-dione] | 0.23 | 0.016
2 | N#Cc1nn(-c2cc(Cl)c(Oc3ccc4c(c3)CCN(c3ccc(F)cc3)C4=O)c(Cl)c2)c(=O)[nH]c1=O [Example 28g] | > 100 | 0.128
3 | O=C1c2ccc(Oc3c(Cl)cc(-n4ncc(=O)[nH]c4=O)cc3Cl)cc2CCN1Cc1cccnn1 [Example 25, 2-(3,5-dichloro-4-((1-oxo-2-(pyridazin-3-ylmethyl)-1,2,3,4-tetrahydroisoquinolin-6-yl)oxy)phenyl)-1,2,4-triazine-3,5(2H,4H)-dione] | > 100 | 0.241
4 | Cc1cc(-n2nc(C#N)c(=O)[nH]c2=O)cc(C)c1Oc1ccc2c(c1)CCNC2=O [Example 26, 2-(3,5-dimethyl-4-((1-oxo-1,2,3,4-tetrahydroisoquinolin-6-yl)oxy)phenyl)-3,5-dioxo-2,3,4,5-tetrahydro-1,2,4-triazine-6-carbonitrile] | 7.04 | 0.476
5 | N#Cc1nn(-c2cc(Cl)c(Oc3ccc4c(c3)CCN(c3ncccn3)C4=O)c(Cl)c2)c(=O)[nH]c1=O [Example 50f, 2-(3,5-dichloro-4-((1-oxo-2-(pyrimidin-2-yl)-1,2,3,4-tetrahydroisoquinolin-6-yl)oxy)phenyl)-3,5-dioxo-2,3,4,5-tetrahydro-1,2,4-triazine-6-carbonitrile] | 2.62 | 0.213
6 | N#Cc1nn(-c2cc(Cl)c(Oc3ccc4c(c3)CCN(CC3CCOCC3)C4=O)c(Cl)c2)c(=O)[nH]c1=O [Example 12, 2-(3,5-Dichloro-4-((1-oxo-2-((tetrahydro-2H-pyran-4-yl)methyl)-1,2,3,4-tetrahydroisoquinolin-6-yl)oxy)phenyl)-3,5-dioxo-2,3,4,5-tetrahydro-1,2,4-triazine-6-carbonitrile] | 0.451 | 0.021
7 | Cc1ccc(F)cc1CN1CCc2cc(Oc3c(Cl)cc(-n4nc(C#N)c(=O)[nH]c4=O)cc3Cl)ccc2C1=O [Example 40d, 2-(3,5-dichloro-4-((2-(5-fluoro-2-methylbenzyl)-1-oxo-1,2,3,4-tetrahydroisoquinolin-6-yl)oxy)phenyl)-3,5-dioxo-2,3,4,5-tetrahydro-1,2,4-triazine-6-carbonitrile] | > 100 | 0.035
8 | N#Cc1nn(-c2cc(Cl)c(Oc3ccc4c(c3)CCN(Cc3ccccc3)C4=O)c(Cl)c2)c(=O)[nH]c1=O [Example 18, 2-(4-((2-Benzyl-1-oxo-1,2,3,4-tetrahydroisoquinolin-6-yl)oxy)-3,5-dichlorophenyl)-3,5-dioxo-2,3,4,5-tetrahydro-1,2,4-triazine-6-carbonitrile] | > 100 | 0.192
9 | N#Cc1nn(-c2cc(Cl)c(Oc3ccc4c(c3)CCN(Cc3cc(F)cc(F)c3)C4=O)c(Cl)c2)c(=O)[nH]c1=O [Example 32d, 2-(3,5-Dichloro-4-((2-(3,5-difluorobenzyl)-1-oxo-1,2,3,4-tetrahydroisoquinolin-6-yl)oxy)phenyl)-3,5-dioxo-2,3,4,5-tetrahydro-1,2,4-triazine-6-carbonitrile] | > 100 | 0.054
10 | N#Cc1nn(-c2cc(Cl)c(Oc3ccc4c(c3)C(=O)NCC4)c(Cl)c2)c(=O)[nH]c1=O [Example 9, 2-(3,5-dichloro-4-((1-oxo-1,2,3,4-tetrahydroisoquinolin-7-yl)oxy)phenyl)-3,5-dioxo-2,3,4,5-tetrahydro-1,2,4-triazine-6-carbonitrile] | > 100 | > 10
11 | N#Cc1nn(-c2cc(Cl)c(Oc3ccc4c(c3)CCN(CO)C4=O)c(Cl)c2)c(=O)[nH]c1=O [Example 39, 2-(3,5-dichloro-4-((2-(hydroxymethyl)-1-oxo-1,2,3,4-tetrahydroisoquinolin-6-yl)oxy)phenyl)-3,5-dioxo-2,3,4,5-tetrahydro-1,2,4-triazine-6-carbonitrile] | > 100 | 0.472
12 | N#Cc1nn(-c2cc(Cl)c(Oc3ccc4c(c3)CCCNC4=O)c(Cl)c2)c(=O)[nH]c1=O [Example 7, 2-(3,5-Dichloro-4-((1-oxo-2,3,4,5-tetrahydro-2H-benzo[c]azepin-7-yl)oxy)phenyl)-3,5-dioxo-2,3,4,5-tetrahydro-1,2,4-triazine-6-carbonitrile] | 0.95 | 0.092
13 | N#Cc1nn(-c2cc(Cl)c(Oc3ccc4c(c3)CCNC4=O)c(Cl)c2)c(=O)[nH]c1=O [Example 1, 2-(3,5-dichloro-4-((1-oxo-1,2,3,4-tetrahydroisoquinolin-6-yl)oxy)phenyl)-3,5-dioxo-2,3,4,5-tetrahydro-1,2,4-triazine-6-carbonitrile] | > 100 | 0.26

The next compounds have a lower EC50 (TRα) than those just listed; values first:

Row | EC50 (TRα) [µM] | EC50 (TRβ) [µM] | SMILES
14 | 0.092 | < 0.0046 | O=C1c2ccc(Oc3c(Cl)cc(-n4ncc(=O)[nH]c4=O)cc3Cl)cc2CCN1Cc1ccc(F)c(Cl)c1 [Example 35, 2-(3,5-dichloro-4-((2-(3-chloro-4-fluorobenzyl)-1-oxo-1,2,3,4-tetrahydroisoquinolin-6-yl)oxy)phenyl)-1,2,4-triazine-3,5(2H,4H)-dione]
15 | 0.093 | 0.0062 | O=C1c2ccc(Oc3c(Cl)cc(-n4ncc(=O)[nH]c4=O)cc3Cl)cc2CCN1Cc1ccc(F)c(F)c1 [Example 30, 2-(3,5-dichloro-4-((2-(3,4-difluorobenzyl)-1-oxo-1,2,3,4-tetrahydroisoquinolin-6-yl)oxy)phenyl)-1,2,4-triazine-3,5(2H,4H)-dione]
16 | 0.107 | < 0.0046 | O=C1c2ccc(Oc3c(Cl)cc(-n4ncc(=O)[nH]c4=O)cc3Cl)cc2CCN1Cc1cccc(F)c1 [Example 31, 2-(3,5-dichloro-4-((2-(3-fluorobenzyl)-1-oxo-1,2,3,4-tetrahydroisoquinolin-6-yl)oxy)phenyl)-1,2,4-triazine-3,5(2H,4H)-dione]
17 | 0.176 | 0.024 | N#Cc1nn(-c2cc(Cl)c(Oc3ccc4c(c3)CCN(COCC(F)F)C4=O)c(Cl)c2)c(=O)[nH]c1=O [Example 15, 2-(3,5-dichloro-4-((1-oxo-2-((2,2-difluoroethoxy)methyl)-1,2,3,4-tetrahydroisoquinolin-6-yl)oxy)phenyl)-3,5-dioxo-2,3,4,5-tetrahydro-1,2,4-triazine-6-carbonitrile]
18 | 0.161 | 0.039 | O=C1c2ccc(Oc3c(Cl)cc(-n4ncc(=O)[nH]c4=O)cc3Cl)cc2CCN1c1ccccn1 [Example 47]
19 | 0.21 | 0.018 | CCOCN1CCc2cc(Oc3c(Cl)cc(-n4nc(C#N)c(=O)[nH]c4=O)cc3Cl)ccc2C1=O [Example 4, 2-(3,5-dichloro-4-((2-(ethoxymethyl)-1-oxo-1,2,3,4-tetrahydroisoquinolin-6-yl)oxy)phenyl)-3,5-dioxo-2,3,4,5-tetrahydro-1,2,4-triazine-6-carbonitrile]
20 | 0.156 | 0.017 | O=C1c2ccc(Oc3c(Cl)cc(-n4ncc(=O)[nH]c4=O)cc3Cl)cc2CCN1Cc1ccccc1F [Example 33, 2-(3,5-dichloro-4-((2-(2-fluorobenzyl)-1-oxo-1,2,3,4-tetrahydroisoquinolin-6-yl)oxy)phenyl)-1,2,4-triazine-3,5(2H,4H)-dione]
